According to paper PMC4704022, “Insights on FXR selective modulation. Speculation on bile acid chemical space in the discovery of potent and selective agonists” (Scientific Reports, 2016):
“Also recorded” adds a separate entry of the source.

Legend:
GPBAR1 [1] = target: T1, GPBAR1 (Homo sapiens, UniProt Q8TDU6); experiment: GPBAR1 agonism, CRE-luciferase transactivation assay in transfected HEK-293T cells; assay type: cell-based; conditions: HEK-293T, compounds at 10 μM; TLCA 10 μM as positive control
T1 construct: expressed in transfected cells; host or cells: HEK-293T
T1 sequence (Q8TDU6 1-330): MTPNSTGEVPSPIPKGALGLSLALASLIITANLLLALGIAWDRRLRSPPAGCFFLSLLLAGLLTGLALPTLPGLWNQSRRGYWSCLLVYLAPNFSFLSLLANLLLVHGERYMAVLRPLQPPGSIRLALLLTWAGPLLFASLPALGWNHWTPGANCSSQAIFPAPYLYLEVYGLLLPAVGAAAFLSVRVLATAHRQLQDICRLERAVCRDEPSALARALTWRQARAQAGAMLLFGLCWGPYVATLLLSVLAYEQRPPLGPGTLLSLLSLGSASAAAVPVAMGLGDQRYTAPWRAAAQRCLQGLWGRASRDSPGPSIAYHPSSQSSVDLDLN
Protocol: (A) HEK-293T cells were co-transfected with GPBAR1 and a reporter gene containing a cAMP responsive element in front of the luciferase gene. Twenty-four hour post transfection cells were stimulated with 7–21 (10 μM). Luciferase activity served as a measure of the rise in intracellular cAMP following activation of GPBAR1. […] Twenty-four hour post transfection cells were stimulated with increasing concentrations of each agent: range from 100 nM to 50 μM. Results are expressed as mean ± standard error.
(§1) To investigate GPBAR1 activation, HEK-293T cells were transiently transfected with Fugene HD reagent (Promega) using the following vectors: pCMVSPORT6-human GPBAR1, pGL4.29 (Promega), a reporter vector containing a cAMP response element (CRE) cloned upstream to the luciferase reporter gene luc2P and pGL4.70. […] Dose-response curves were performed in HEK-293T cells transfected as described above and treated with increasing concentrations of 9 and 21 (from 100 nM to 50 μM). […] At 18 h post stimulations, cellular lysate was assayed for luciferase and renilla activities using the Dual-Luciferase Reporter assay system (E1980, Promega). Luminescence was measured using Glomax 20/20 luminometer (Promega). Luciferase activities were normalized with Renilla activities.

GPBAR1 [2] = target: T1, GPBAR1; experiment: GPBAR1 antagonism, transactivation assay in HEK-293T cells stimulated with TLCA; assay type: cell-based
From the text: Figure 9 Antagonism on GPBAR1 by transactivation assay. (A) HEK-293T cells were transfected as described in Fig. 8. […] Results are expressed as mean ± standard error.
as §1

FXR-LBD = target: T2, FXR-LBD (Homo sapiens, UniProt Q96RI1); experiment: Alphascreen coactivator recruitment assay, FXR-LBD with SRC-1 peptide; assay type: biochemical; conditions: ligand at 2 μM, effect of 6 set as 100%
T2 construct: 10 nM of purified GST-tagged FXR-LBD protein
T2 sequence (Q96RI1 262-486 limits assumed): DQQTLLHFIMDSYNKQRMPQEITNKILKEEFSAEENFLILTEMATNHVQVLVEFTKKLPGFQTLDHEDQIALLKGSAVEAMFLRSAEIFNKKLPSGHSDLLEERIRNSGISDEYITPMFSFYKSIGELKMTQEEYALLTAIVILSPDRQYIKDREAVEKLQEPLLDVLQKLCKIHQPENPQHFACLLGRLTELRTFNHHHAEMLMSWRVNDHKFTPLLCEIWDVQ
Protocol: Figure 7 Coactivator recruitment assay measuring a direct interaction of FXR with SRC-1. Anti-GST-coated acceptor beads captured GST-fusion FXR-LBD and the biotinylated-SRC-1 peptide was captured by the streptavidin donor beads. FXR-LBD recruited SRC-1 in the presence of ligand at 2 μM and, upon illumination at 680 nm, chemical energy is transferred from donor to acceptor beads across the complex streptavidin-donor/Src-1-biotin/ligand/GSTFXR-LBD/anti-GST-acceptor and a signal is produced. Results are expressed as percentage of the effect of 6 arbitrarily settled as 100%. NT is referred to the experiment carried out in absence of ligand. Results are expressed as mean ± standard error.
The relative potency of selected members of this novel family was then investigated by a detailed measurement of concentration-response curve of the 3-deoxy sulfate derivative 9, the corresponding carboxylic acid 10, and the 3β-hydroxyl alcohol 15 and carboxylic acid derivative 17, all sharing the 6α/7α configuration, on FXR transactivation. […] In this assay, the ligand induces the recruitment of the coactivator to the LBD of hFXR.
Anti-GST-coated acceptor beads were used to capture the GST-fusion FXR-LBD, whereas the biotinylated-SRC-1 peptide was captured by the streptavidin donor beads. Upon illumination at 680 nm, chemical energy is transferred from donor to acceptor beads across the complex streptavidin-donor/Src-1-biotin/GSTFXR-LBD/anti-GST-acceptor and a signal is produced. The assay was performed in white, low-volume, 384-well Optiplates (PerkinElmer) using a final volume of 25 μL containing final concentrations of 10 nM of purified GST-tagged FXR-LBD protein, 30 nM biotinylated Src-1 peptide, 20 μg/mL anti-GST acceptor beads acceptor beads, and 10 μg/mL of streptavidin donor bead (PerkinElmer). The assay buffer contained 50 mM Tris (pH 7.4), 50 mM KCl, 0.1% BSA, and 1 mM DTT. […] After the addition of the detection mix (acceptor and donor beads), the plates were incubated in the dark for 4 h at room temperature and then were read in an Envision microplate analyzer (PerkinElmer).

## CC[C@H]1[C@@H](O)[C@@H]2[C@H](CC[C@]3(C)[C@@H]([C@H](C)CCC(=O)O)CC[C@@H]23)[C@@]2(C)CCCC[C@@H]12 [compound 10, 6α-ethyl-7α-hydroxy-5β-cholan-24-oic acid]
GPBAR1 [1]
  GPBAR1 agonism (in words): inactive towards GPBAR1 in agonistic mode; also recorded: devoid of any activity toward GPBAR1 in agonistic mode
GPBAR1 [2]; HEK-293T, 10 μM TLCA in combination with 25 μM compound
  GPBAR1 antagonism (in words): showed inhibitory activity against GPBAR1 transactivation induced by TLCA
GPBAR1 [2]; read-out: IC50, antagonism of TLCA-induced GPBAR1 transactivation
  IC50: 11 µM
FXR-LBD
  Recruitment of SRC-1 coactivator to FXR-LBD (in words): very potent activity in the recruitment of SRC-1 co-activator
